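Following 48 hours of exposure in 96-well plates, responses at five concentrations were used to interpolate endpoints linearly. Here, GI50 denotes the concentration required for 50% inhibition of growth. Definition used: TGI = concentration required for complete inhibition of growth.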
What was measured:
Assay in all cases: DTP human tumour cell line panel, 48 h
786-0 renal = test system: 786-0 renal
A498 renal = test system: A498 renal
A549 NSCLC = test system: A549 NSCLC
ACHN renal = test system: ACHN renal
BT-549 breast = test system: BT-549 breast
CAKI-1 renal = test system: CAKI-1 renal
CCRF-CEM leukemia = test system: CCRF-CEM leukemia
COLO 205 colon = test system: COLO 205 colon
DU-145 prostate = test system: DU-145 prostate
HCC-2998 colon = test system: HCC-2998 colon
HCT-116 colon = test system: HCT-116 colon
HCT-15 colon = test system: HCT-15 colon
HL-60(TB) leukemia = test system: HL-60(TB) leukemia
HOP-62 NSCLC = test system: HOP-62 NSCLC
HOP-92 NSCLC = test system: HOP-92 NSCLC
HS 578T breast = test system: HS 578T breast
HT29 colon = test system: HT29 colon
IGROV1 ovarian = test system: IGROV1 ovarian
K-562 leukemia = test system: K-562 leukemia
KM12 colon = test system: KM12 colon
LOX IMVI melanoma = test system: LOX IMVI melanoma
M14 melanoma = test system: M14 melanoma
MALME-3M melanoma = test system: MALME-3M melanoma
MCF7 breast = test system: MCF7 breast
MDA-MB-231 breast = test system: MDA-MB-231 breast
MDA-MB-435 = test system: MDA-MB-435
MOLT-4 leukemia = test system: MOLT-4 leukemia
NCI-H226 lung = test system: NCI-H226 lung
NCI-H23 lung = test system: NCI-H23 lung
NCI-H460 lung = test system: NCI-H460 lung
NCI-H522 lung = test system: NCI-H522 lung
NCI/ADR-RES ovarian = test system: NCI/ADR-RES ovarian
OVCAR-3 ovarian = test system: OVCAR-3 ovarian
OVCAR-4 ovarian = test system: OVCAR-4 ovarian
OVCAR-5 ovarian = test system: OVCAR-5 ovarian
OVCAR-8 ovarian = test system: OVCAR-8 ovarian
PC-3 prostate = test system: PC-3 prostate
RPMI-8226 leukemia = test system: RPMI-8226 leukemia
RXF 393 renal = test system: RXF 393 renal
SF-268 CNS = test system: SF-268 CNS
SF-295 CNS = test system: SF-295 CNS
SF-539 CNS = test system: SF-539 CNS
SK-MEL-2 melanoma = test system: SK-MEL-2 melanoma
SK-MEL-28 melanoma = test system: SK-MEL-28 melanoma
SK-MEL-5 melanoma = test system: SK-MEL-5 melanoma
SK-OV-3 ovarian = test system: SK-OV-3 ovarian
SN12C renal = test system: SN12C renal
SNB-19 CNS = test system: SNB-19 CNS
SNB-75 CNS = test system: SNB-75 CNS
SR leukemia = test system: SR leukemia
SW-620 colon = test system: SW-620 colon
T-47D breast = test system: T-47D breast
TK-10 renal = test system: TK-10 renal
U251 CNS = test system: U251 CNS
UACC-257 melanoma = test system: UACC-257 melanoma
UACC-62 melanoma = test system: UACC-62 melanoma
UO-31 renal = test system: UO-31 renal

O=C1NC(=NCCc2cccs2)S/C1=C\c1ccc2ncccc2c1
GI50 (786-0 renal): 14.5 µM
TGI (786-0 renal): > 25 µM
GI50 (A498 renal): 7.59 µM
TGI (A498 renal): > 22.3 µM
GI50 (A549 NSCLC): 8.83 µM
TGI (A549 NSCLC): > 25 µM
GI50 (ACHN renal): 8.33 µM
TGI (ACHN renal): > 25 µM
GI50 (BT-549 breast): 6.39 µM
TGI (BT-549 breast): 22 µM
GI50 (CAKI-1 renal): 9.7 µM
TGI (CAKI-1 renal): > 25 µM
GI50 (CCRF-CEM leukemia): 10.2 µM
TGI (CCRF-CEM leukemia): > 25 µM
GI50 (COLO 205 colon): 7.79 µM
TGI (COLO 205 colon): > 25 µM
GI50 (DU-145 prostate): 11.2 µM
TGI (DU-145 prostate): > 25 µM
GI50 (HCC-2998 colon): 22.1 µM
TGI (HCC-2998 colon): > 25 µM
GI50 (HCT-116 colon): 5.92 µM
TGI (HCT-116 colon): > 25 µM
GI50 (HCT-15 colon): 8.02 µM
TGI (HCT-15 colon): > 25 µM
GI50 (HL-60(TB) leukemia): 9.17 µM
TGI (HL-60(TB) leukemia): > 25 µM
GI50 (HOP-62 NSCLC): 11.8 µM
TGI (HOP-62 NSCLC): > 25 µM
GI50 (HOP-92 NSCLC): 4.7 µM
TGI (HOP-92 NSCLC): > 25 µM
GI50 (HS 578T breast): 6.57 µM
TGI (HS 578T breast): > 21.8 µM
GI50 (HT29 colon): 11.8 µM
TGI (HT29 colon): > 25 µM
GI50 (IGROV1 ovarian): 9.1 µM
TGI (IGROV1 ovarian): > 25 µM
GI50 (K-562 leukemia): 8.85 µM
TGI (K-562 leukemia): > 25 µM
GI50 (KM12 colon): 10.8 µM
TGI (KM12 colon): > 25 µM
GI50 (LOX IMVI melanoma): 8.12 µM
TGI (LOX IMVI melanoma): > 25 µM
GI50 (M14 melanoma): 12.1 µM
TGI (M14 melanoma): > 25 µM
GI50 (MALME-3M melanoma): > 25 µM
TGI (MALME-3M melanoma): > 25 µM
GI50 (MCF7 breast): 8.28 µM
TGI (MCF7 breast): > 25 µM
GI50 (MDA-MB-231 breast): 19.7 µM
TGI (MDA-MB-231 breast): > 25 µM
GI50 (MDA-MB-435): 6.97 µM
TGI (MDA-MB-435): > 25 µM
GI50 (MOLT-4 leukemia): 12.6 µM
TGI (MOLT-4 leukemia): > 25 µM
GI50 (NCI-H226 lung): 8.21 µM
TGI (NCI-H226 lung): > 25 µM
GI50 (NCI-H23 lung): 9.54 µM
TGI (NCI-H23 lung): > 25 µM
GI50 (NCI-H460 lung): 10.3 µM
TGI (NCI-H460 lung): > 25 µM
GI50 (NCI-H522 lung): 7.33 µM
TGI (NCI-H522 lung): > 25 µM
GI50 (NCI/ADR-RES ovarian): 15.3 µM
TGI (NCI/ADR-RES ovarian): > 25 µM
GI50 (OVCAR-3 ovarian): 10.1 µM
TGI (OVCAR-3 ovarian): > 25 µM
GI50 (OVCAR-4 ovarian): 13.2 µM
TGI (OVCAR-4 ovarian): > 25 µM
GI50 (OVCAR-5 ovarian): > 20.4 µM
TGI (OVCAR-5 ovarian): > 25 µM
GI50 (OVCAR-8 ovarian): 10.3 µM
TGI (OVCAR-8 ovarian): > 25 µM
GI50 (PC-3 prostate): > 20 µM
TGI (PC-3 prostate): > 25 µM
GI50 (RPMI-8226 leukemia): 11.6 µM
TGI (RPMI-8226 leukemia): > 25 µM
GI50 (RXF 393 renal): 7.68 µM
TGI (RXF 393 renal): > 25 µM
GI50 (SF-268 CNS): 10 µM
TGI (SF-268 CNS): > 25 µM
GI50 (SF-295 CNS): 9.56 µM
TGI (SF-295 CNS): > 25 µM
GI50 (SF-539 CNS): 7.54 µM
TGI (SF-539 CNS): > 25 µM
GI50 (SK-MEL-2 melanoma): > 18.8 µM
TGI (SK-MEL-2 melanoma): > 25 µM
GI50 (SK-MEL-28 melanoma): 24.4 µM
TGI (SK-MEL-28 melanoma): > 25 µM
GI50 (SK-MEL-5 melanoma): 8.5 µM
TGI (SK-MEL-5 melanoma): > 25 µM
GI50 (SK-OV-3 ovarian): 9.36 µM
TGI (SK-OV-3 ovarian): > 25 µM
GI50 (SN12C renal): 8.78 µM
TGI (SN12C renal): > 25 µM
GI50 (SNB-19 CNS): 9.64 µM
TGI (SNB-19 CNS): > 25 µM
GI50 (SNB-75 CNS): 5.91 µM
TGI (SNB-75 CNS): > 22.6 µM
GI50 (SR leukemia): 2.23 µM
TGI (SR leukemia): 14.2 µM
GI50 (SW-620 colon): 8.2 µM
TGI (SW-620 colon): > 25 µM
GI50 (T-47D breast): 10.1 µM
TGI (T-47D breast): > 25 µM
GI50 (TK-10 renal): 7.77 µM
TGI (TK-10 renal): > 25 µM
GI50 (U251 CNS): 8.79 µM
TGI (U251 CNS): > 25 µM
GI50 (UACC-257 melanoma): > 19.3 µM
TGI (UACC-257 melanoma): > 25 µM
GI50 (UACC-62 melanoma): 9.51 µM
TGI (UACC-62 melanoma): > 25 µM
GI50 (UO-31 renal): 11.4 µM
TGI (UO-31 renal): > 25 µM
